{"source": "paper PMC5218480", "about": "(PLoS ONE, 2017)", "system": "MV-4-11 cells", "test": "Gene expression microarray analysis (Affymetrix PrimeView) and GSEA", "format": "cell-based, human", "design": "RFU PODN (11730768_x_at) / Fold change /veh PODN (11730768_x_at) / RFU LINC00158 (11744669_a_at) / Fold change /veh LINC00158 (11744669_a_at) / RFU DUSP10 (11751237_a_at) / Fold change /veh DUSP10 (11751237_a_at) / RFU ID3 (11757404_x_at) / Fold change /veh ID3 (11757404_x_at) / RFU PLEKHG5 (11737974_s_at) / Fold change /veh PLEKHG5 (11737974_s_at) / RFU LRRC4B (11730491_at) / Fold change /veh LRRC4B (11730491_at) / RFU GIMAP4 (11747438_a_at) / Fold change /veh GIMAP4 (11747438_a_at) / RFU KRT8 (11758183_x_at) / Fold change /veh KRT8 (11758183_x_at) / RFU CNN1 (11734310_a_at) / Fold change /veh CNN1 (11734310_a_at) / RFU VPS37D (11726825_at) / Fold change /veh VPS37D (11726825_at) / RFU C10orf10 (11716522_x_at) / Fold change /veh C10orf10 (11716522_x_at) / RFU KIR2DL2 /// KIR2DL4 /// KIR2DL5A /// KIR2DL5B /// KIR2DS1 /// KIR2DS2 /// KIR2DS3 /// KIR2DS4 /// KIR3DL3 /// KIR3DL3 /// KIR3DS1 (11738374_at) / Fold change /veh KIR2DL2 /// KIR2DL4 /// KIR2DL5A /// KIR2DL5B /// KIR2DS1 /// KIR2DS2 /// KIR2DS3 /// KIR2DS4 /// KIR3DL3 /// KIR3DL3 /// KIR3DS1 (11738374_at) / RFU C1QL1 (11718748_at) / Fold change /veh C1QL1 (11718748_at) / RFU TMPRSS4 (11747572_a_at) / Fold change /veh TMPRSS4 (11747572_a_at) / RFU HAMP (11756126_x_at) / Fold change /veh HAMP (11756126_x_at) / RFU RNFT2 (11725882_a_at) / Fold change /veh RNFT2 (11725882_a_at) / RFU NR4A2 (11747474_a_at) / Fold change /veh NR4A2 (11747474_a_at) / RFU ABCC12 (11746883_a_at) / Fold change /veh ABCC12 (11746883_a_at) / RFU TMEM136 (11760407_x_at) / Fold change /veh TMEM136 (11760407_x_at) / RFU CLDN22 /// WWC2 (11732394_at) / Fold change /veh CLDN22 /// WWC2 (11732394_at) / RFU HLA-DPB1 (11760878_x_at) / Fold change /veh HLA-DPB1 (11760878_x_at) / RFU SPINT1 (11716480_a_at) / Fold change /veh SPINT1 (11716480_a_at) / RFU GAP43 (11754022_s_at) / Fold change /veh GAP43 (11754022_s_at) / RFU A4GNT (11735810_at) / Fold change /veh A4GNT (11735810_at) / RFU PRB3 (11715151_x_at) / Fold change /veh PRB3 (11715151_x_at) / RFU TUBB4B (11761932_at) / Fold change /veh TUBB4B (11761932_at) / RFU CAPN14 (11732068_a_at) / Fold change /veh CAPN14 (11732068_a_at) / RFU TMCC2 (11721928_a_at) / Fold change /veh TMCC2 (11721928_a_at) / RFU IRGQ (11745062_a_at) / Fold change /veh IRGQ (11745062_a_at) / RFU FAM174B (11720279_a_at) / Fold change /veh FAM174B (11720279_a_at) / RFU TMPRSS4 (11748680_a_at) / Fold change /veh TMPRSS4 (11748680_a_at) / RFU FAM212B (11763350_a_at) / Fold change /veh FAM212B (11763350_a_at) / RFU PLEKHG5 (11743358_a_at) / Fold change /veh PLEKHG5 (11743358_a_at) / RFU ZSCAN30 (11745921_a_at) / Fold change /veh ZSCAN30 (11745921_a_at) / RFU CMKLR1 (11741424_a_at) / Fold change /veh CMKLR1 (11741424_a_at) / RFU LOC101060620 /// MAPK8IP1 (11723275_at) / Fold change /veh LOC101060620 /// MAPK8IP1 (11723275_at) / RFU SPTSSB (11747773_x_at) / Fold change /veh SPTSSB (11747773_x_at) / RFU PRSS12 (11739890_at) / Fold change /veh PRSS12 (11739890_at) / RFU BIN1 (11741810_x_at) / Fold change /veh BIN1 (11741810_x_at) / RFU WNT11 (11732464_a_at) / Fold change /veh WNT11 (11732464_a_at) / RFU C10orf10 (11716521_a_at) / Fold change /veh C10orf10 (11716521_a_at) / RFU C5orf56 (11738089_at) / Fold change /veh C5orf56 (11738089_at) / RFU CYB561 (11721691_x_at) / Fold change /veh CYB561 (11721691_x_at) / RFU ANKRD19P (11752326_a_at) / Fold change /veh ANKRD19P (11752326_a_at) / RFU OR2T12 /// OR2T33 /// OR2T8 (11738714_s_at) / Fold change /veh OR2T12 /// OR2T33 /// OR2T8 (11738714_s_at) / RFU VCAN (11748164_a_at) / Fold change /veh VCAN (11748164_a_at) / RFU JSRP1 (11732532_at) / Fold change /veh JSRP1 (11732532_at) / RFU KRTAP10-11 (11738290_x_at) / Fold change /veh KRTAP10-11 (11738290_x_at) / RFU MYO3A (11730013_a_at) / Fold change /veh MYO3A (11730013_a_at) / RFU EBF3 (11725865_a_at) / Fold change /veh EBF3 (11725865_a_at) / RFU CAMK2N1 (11719241_x_at) / Fold change /veh CAMK2N1 (11719241_x_at) / RFU C5orf56 (11738088_a_at) / Fold change /veh C5orf56 (11738088_a_at) / RFU OLFML3 (11715873_a_at) / Fold change /veh OLFML3 (11715873_a_at) / RFU LOC100653217 /// NTM (11731650_a_at) / Fold change /veh LOC100653217 /// NTM (11731650_a_at) / RFU MAPK11 (11762145_a_at) / Fold change /veh MAPK11 (11762145_a_at) / RFU FIZ1 (11724087_x_at) / Fold change /veh FIZ1 (11724087_x_at) / RFU OASL (11726364_x_at) / Fold change /veh OASL (11726364_x_at) / RFU SOX15 (11748057_x_at) / Fold change /veh SOX15 (11748057_x_at) / RFU CD79A (11719716_a_at) / Fold change /veh CD79A (11719716_a_at) / RFU HIST1H1D (11736915_at) / Fold change /veh HIST1H1D (11736915_at) / RFU CASKIN2 (11723855_a_at) / Fold change /veh CASKIN2 (11723855_a_at) / RFU LOC730098 (11760151_x_at) / Fold change /veh LOC730098 (11760151_x_at) / RFU OR4N2 (11742367_at) / Fold change /veh OR4N2 (11742367_at) / RFU PRRT2 (11749266_a_at) / Fold change /veh PRRT2 (11749266_a_at) / RFU SNX32 (11753110_a_at) / Fold change /veh SNX32 (11753110_a_at) / RFU CDHR5 (11726645_a_at) / Fold change /veh CDHR5 (11726645_a_at) / RFU RCAN1 (11760418_a_at) / Fold change /veh RCAN1 (11760418_a_at) / RFU FAM167A (11723789_a_at) / Fold change /veh FAM167A (11723789_a_at) / RFU FAM26E (11764081_at) / Fold change /veh FAM26E (11764081_at) / RFU ISYNA1 (11749810_s_at) / Fold change /veh ISYNA1 (11749810_s_at) / RFU ACY1 (11761880_at) / Fold change /veh ACY1 (11761880_at) / RFU 11764098_at / Fold change /veh 11764098_at / RFU SAMD14 (11745864_x_at) / Fold change /veh SAMD14 (11745864_x_at) / RFU NPB (11741838_a_at) / Fold change /veh NPB (11741838_a_at) / RFU TMPRSS6 (11731388_a_at) / Fold change /veh TMPRSS6 (11731388_a_at) / RFU KRTAP10-2 (11738614_at) / Fold change /veh KRTAP10-2 (11738614_at) / RFU ARHGAP8 /// PRR5-ARHGAP8 (11727945_x_at) / Fold change /veh ARHGAP8 /// PRR5-ARHGAP8 (11727945_x_at) / RFU KRTAP5-7 /// NADSYN1 (11734609_at) / Fold change /veh KRTAP5-7 /// NADSYN1 (11734609_at) / RFU RASL12 (11751679_a_at) / Fold change /veh RASL12 (11751679_a_at) / RFU CDKN2B (11736163_a_at) / Fold change /veh CDKN2B (11736163_a_at) / RFU PRF1 (11729649_at) / Fold change /veh PRF1 (11729649_at) / RFU, ZNF638 /// ZNF638-IT1 / Fold change vs veh, ZNF638 /// ZNF638-IT1 / RFU, PANK3 / Fold change vs veh, PANK3 / RFU, SH3YL1 / Fold change vs veh, SH3YL1 / RFU, ZEB2 / Fold change vs veh, ZEB2 / RFU, NRIP1 / Fold change vs veh, NRIP1 / RFU, PTTG1IP / Fold change vs veh, PTTG1IP / RFU, CAPN2 / Fold change vs veh, CAPN2 / RFU, MED14 / Fold change vs veh, MED14 / RFU, SNORA58 / Fold change vs veh, SNORA58 / RFU, C1orf63 / Fold change vs veh, C1orf63 / RFU, LRRFIP1 / Fold change vs veh, LRRFIP1 / RFU, NDUFAF7 / Fold change vs veh, NDUFAF7 / RFU, SLC12A2 / Fold change vs veh, SLC12A2 / RFU, IBTK / Fold change vs veh, IBTK / RFU, ESF1 / Fold change vs veh, ESF1 / Fold change vs veh, TMEM50B / RFU, TAOK1 / Fold change vs veh, TAOK1 / RFU, ACBD3 / Fold change vs veh, ACBD3 / RFU, TMA16 / Fold change vs veh, TMA16 / RFU, RWDD3 / Fold change vs veh, RWDD3 / RFU, BCAT1 / Fold change vs veh, BCAT1 / RFU, EDEM3 / Fold change vs veh, EDEM3 / RFU, TMEM33 / Fold change vs veh, TMEM33 / RFU, WDR75 / Fold change vs veh, WDR75 / RFU, AHCTF1 / Fold change vs veh, AHCTF1 / RFU, TFRC / Fold change vs veh, TFRC / RFU, ZDHHC17 / Fold change vs veh, ZDHHC17 / RFU, NOM1 / Fold change vs veh, NOM1 / RFU, ARL8B / Fold change vs veh, ARL8B / RFU, ZBTB11 / Fold change vs veh, ZBTB11 / RFU, TAMM41 / Fold change vs veh, TAMM41 / RFU, KIAA1704 /// LOC100996395 / Fold change vs veh, KIAA1704 /// LOC100996395 / RFU, ING1 / Fold change vs veh, ING1 / RFU, TRMT61B / Fold change vs veh, TRMT61B / RFU, FUBP3 / Fold change vs veh, FUBP3 / RFU, TP53 / Fold change vs veh, TP53 / RFU, TNKS2 / Fold change vs veh, TNKS2 / RFU, ZFP14 / Fold change vs veh, ZFP14 / RFU, ACTR2 / Fold change vs veh, ACTR2 / RFU, PPP3R1 / Fold change vs veh, PPP3R1 / RFU, PIK3R1 / Fold change vs veh, PIK3R1 / RFU, HNRNPA1 / Fold change vs veh, HNRNPA1 / RFU, RNF170 / Fold change vs veh, RNF170 / RFU, ZNF28 / Fold change vs veh, ZNF28 / RFU, RNGTT / Fold change vs veh, RNGTT / RFU, OGT / Fold change vs veh, OGT / RFU, BRD1 / Fold change vs veh, BRD1 / RFU, MARS / Fold change vs veh, MARS / RFU, ZNF655 / Fold change vs veh, ZNF655 / RFU, FAHD1 / Fold change vs veh, FAHD1 / RFU, BDP1 / Fold change vs veh, BDP1 / RFU, LRRCC1 / Fold change vs veh, LRRCC1 / RFU, ARID1A / Fold change vs veh, ARID1A / RFU, ZNF146 / Fold change vs veh, ZNF146 / RFU, ZNF330 / Fold change vs veh, ZNF330 / RFU, GPN3 / Fold change vs veh, GPN3 / RFU, C9orf123 / Fold change vs veh, C9orf123 / RFU, N4BP2L2 / Fold change vs veh, N4BP2L2 / RFU, ARFIP1 / Fold change vs veh, ARFIP1 / RFU, FAM179B / Fold change vs veh, FAM179B / RFU, BCL10 / Fold change vs veh, BCL10 / RFU, UHRF1BP1L / Fold change vs veh, UHRF1BP1L / RFU, BET1 / Fold change vs veh, BET1 / RFU, CNOT2 / Fold change vs veh, CNOT2 / RFU, ZNF268 / Fold change vs veh, ZNF268 / Fold change vs veh, ZNF507 / RFU, DGCR2 / Fold change vs veh, DGCR2 / RFU, WDSUB1 / Fold change vs veh, WDSUB1 / Fold change vs veh, HSP90B1 /// MIR3652 / RFU, ADSS / Fold change vs veh, ADSS / RFU, GK / Fold change vs veh, GK / RFU, ZNF148 / Fold change vs veh, ZNF148 / RFU, TAF9 / Fold change vs veh, TAF9 / RFU, SLC1A5 / Fold change vs veh, SLC1A5 / RFU, SLMO2 / Fold change vs veh, SLMO2 / RFU, ABCC4 / Fold change vs veh, ABCC4 / RFU, LOC101060439 /// RAP1B / Fold change vs veh, LOC101060439 /// RAP1B / RFU, RFX7 / Fold change vs veh, RFX7 / RFU, GTPBP10 / Fold change vs veh, GTPBP10 / RFU, CNEP1R1 / Fold change vs veh, CNEP1R1 / RFU, BIVM-ERCC5 /// ERCC5 / Fold change vs veh, BIVM-ERCC5 /// ERCC5 / RFU, ILF3 / Fold change vs veh, ILF3 / RFU 11762660_at / Fold change /veh 11762660_at / RFU VCAN (11757783_s_at) / Fold change /veh VCAN (11757783_s_at) / RFU DDX43 (11728927_at) / Fold change /veh DDX43 (11728927_at) / RFU KRT8 (11758188_x_at) / Fold change /veh KRT8 (11758188_x_at) / RFU NKD1 (11759106_at) / Fold change /veh NKD1 (11759106_at) / RFU SRD5A1 (11742802_a_at) / Fold change /veh SRD5A1 (11742802_a_at) / RFU TPSAB1 /// TPSB2 (11721975_s_at) / Fold change /veh TPSAB1 /// TPSB2 (11721975_s_at) / RFU GSTM3 (11746129_a_at) / Fold change /veh GSTM3 (11746129_a_at) / RFU IL23R (11737362_x_at) / Fold change /veh IL23R (11737362_x_at) / RFU TMEM51 (11727254_a_at) / Fold change /veh TMEM51 (11727254_a_at) / RFU PIWIL2 (11732686_x_at) / Fold change /veh PIWIL2 (11732686_x_at) / RFU ORM1 (11744905_x_at) / Fold change /veh ORM1 (11744905_x_at) / RFU CCDC152 (11743942_at) / Fold change /veh CCDC152 (11743942_at) / RFU ECM1 (11717891_a_at) / Fold change /veh ECM1 (11717891_a_at) / RFU IL23R (11748794_a_at) / Fold change /veh IL23R (11748794_a_at) / RFU TNFAIP8L3 (11732012_x_at) / Fold change /veh TNFAIP8L3 (11732012_x_at) / RFU MBOAT4 (11741988_at) / Fold change /veh MBOAT4 (11741988_at) / RFU 11764193_at / Fold change /veh 11764193_at / RFU TMEM53 (11763286_at) / Fold change /veh TMEM53 (11763286_at) / RFU MAGEB2 (11727129_at) / Fold change /veh MAGEB2 (11727129_at) / RFU TMEM200A (11744735_a_at) / Fold change /veh TMEM200A (11744735_a_at) / RFU CCDC152 (11751479_a_at) / Fold change /veh CCDC152 (11751479_a_at) / RFU FAM211A (11726209_a_at) / Fold change /veh FAM211A (11726209_a_at) / RFU RGS16 (11746705_a_at) / Fold change /veh RGS16 (11746705_a_at) / RFU VCAN (11755009_s_at) / Fold change /veh VCAN (11755009_s_at) / RFU RHOB (11743442_s_at) / Fold change /veh RHOB (11743442_s_at) / RFU RGS16 (11720943_a_at) / Fold change /veh RGS16 (11720943_a_at) / RFU RGS16 (11720944_at) / Fold change /veh RGS16 (11720944_at) / RFU, VPS4B / Fold change vs veh, VPS4B / RFU, CREB1 / Fold change vs veh, CREB1 / RFU, DNAJC13 / Fold change vs veh, DNAJC13 / RFU, GNAQ / Fold change vs veh, GNAQ / RFU, CDK5R1 / Fold change vs veh, CDK5R1 / RFU, ZRANB3 / Fold change vs veh, ZRANB3 / RFU, CUL4A / Fold change vs veh, CUL4A / RFU, CCNY / Fold change vs veh, CCNY / RFU, UFL1 / Fold change vs veh, UFL1 / RFU, COG3 / Fold change vs veh, COG3 / RFU, DIAPH2 / Fold change vs veh, DIAPH2 / RFU, SKA2 / Fold change vs veh, SKA2 / RFU, AFF3 / Fold change vs veh, AFF3 / RFU, LMF1 / Fold change vs veh, LMF1 / RFU, IPO11 / Fold change vs veh, IPO11 / RFU, DFFB / Fold change vs veh, DFFB / RFU, FOXP1 / Fold change vs veh, FOXP1 / RFU, CARD8 / Fold change vs veh, CARD8 / RFU, STRN3 / Fold change vs veh, STRN3 / RFU, ADK / Fold change vs veh, ADK / RFU, RASSF2 / Fold change vs veh, RASSF2 / RFU, WIPF1 / Fold change vs veh, WIPF1 / RFU, LARP1B / Fold change vs veh, LARP1B / RFU, RASA1 / Fold change vs veh, RASA1 / RFU, RB1 / Fold change vs veh, RB1 / RFU, PPFIA1 / Fold change vs veh, PPFIA1 / RFU, MAT2A / Fold change vs veh, MAT2A / RFU, CCT5 / Fold change vs veh, CCT5 / RFU, WDR92 / Fold change vs veh, WDR92 / RFU, CUX1 / Fold change vs veh, CUX1 / RFU, TTC7A / Fold change vs veh, TTC7A / RFU, TMEM135 / Fold change vs veh, TMEM135 / RFU, DEPTOR / Fold change vs veh, DEPTOR / RFU, CPM / Fold change vs veh, CPM / RFU, DNAJB6 / Fold change vs veh, DNAJB6 / RFU, CACNA2D3 / Fold change vs veh, CACNA2D3 / RFU, DTX4 / Fold change vs veh, DTX4 / RFU, TFCP2 / Fold change vs veh, TFCP2 / RFU, GMCL1 /// GMCL1P1 / Fold change vs veh, GMCL1 /// GMCL1P1 / RFU, AEBP2 / Fold change vs veh, AEBP2 / RFU, SNHG1 /// SNORD22 /// SNORD25 /// SNORD26 /// SNORD27 /// SNORD28 /// SNORD29 /// SNORD31 / Fold change vs veh, SNHG1 /// SNORD22 /// SNORD25 /// SNORD26 /// SNORD27 /// SNORD28 /// SNORD29 /// SNORD31 / Fold change (Aza/veh), C12orf56 (ProbeSet 11735607_a_at) / Fold change (ACY-1035/veh), C12orf56 (ProbeSet 11735607_a_at) / Fold change (Aza/veh), FGFR1OP (ProbeSet 11751329_s_at) / Fold change (ACY-1035/veh), FGFR1OP (ProbeSet 11751329_s_at) / Fold change (Aza/veh), VPS36 (ProbeSet 11739960_a_at) / Fold change (ACY-1035/veh), VPS36 (ProbeSet 11739960_a_at) / RFU SYPL1 (11715823_x_at) / Fold change /veh SYPL1 (11715823_x_at) / RFU IGFBP7 (11715501_s_at) / Fold change /veh IGFBP7 (11715501_s_at) / RFU REEP3 (11722064_at) / Fold change /veh REEP3 (11722064_at) / RFU IGLL1 (11728026_x_at) / Fold change /veh IGLL1 (11728026_x_at): dose or concentration left out as unconfirmed", "conditions": "ProbeSet 11741070_a_at; LIST B", "data": [{"smiles": "Nc1ccc(-c2cccs2)cc1NC(=O)c1ccc2c(c1)cc(C1CC1)n2CCN1CCOCC1", "note": "[ACY-1035]", "values": [{"measurement": "RFU, ZNF146", "result": 2312.59, "unit": "RFU"}]}]}
